From PubChem BioAssay (NCI) come the findings set out here.

Structures are written as SMILES.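 The compound was tested at five concentrations on cells cultured in 96-well plates, with a 48-hour exposure period. TGI marks complete inhibition of growth.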

Assay in all cases: growth of human tumour cells (NCI), 48 h
The test system of assay [1] is UACC-62 melanoma.
Assay [2] concerns K-562 leukemia.
Assay [3] has as its system M14 melanoma.
Assay [4] relates to SR leukemia.
The test system of assay [5] is RPMI-8226 leukemia.
Assay [6] deals with U251 CNS.
Assay [7] has as its system NCI-H23 lung.
The subject of assay [8] is MDA-MB-231 breast.
Assay [9] has as its system A498 renal.
Assay [10] has as its system MOLT-4 leukemia.
Assay [11] concerns OVCAR-8 ovarian.
Assay [12] relates to NCI-H522 lung.
In assay [13] the test system is MDA-MB-435.
The test system of assay [14] is SK-MEL-2 melanoma.
Assay [15] deals with RXF 393 renal.
Assay [16] concerns OVCAR-3 ovarian.
Assay [17] has as its system HL-60(TB) leukemia.
In assay [18] the test system is SNB-75 CNS.

For `CC(O)c1c2c(cc3c1CC1(C3)Cc3cc4c(c(C(C)O)c3C1)CCC4)CCC2` (configuration not stated), the TGI turned out to be 40.7 µM in [1]; 26.8 µM in assay [2]; 35.2 µM in assay [3]; 29.8 µM in assay [4]; 38.5 µM in [5]; 29.3 µM in [6]. The TGI in assay [7] was 40.4 µM; in assay [8], 34.8 µM; in [9], 29 µM; in [10] it was 26.3 µM; in assay [11] it was more than 100 µM; in assay [12], 30 µM. Besides, the TGI in assay [13] is 31.9 µM; in assay [14], 43.3 µM; in assay [15], 30 µM; in assay [16], 29.4 µM; in assay [17] it was 21.2 µM.

In the case of `Clc1ccccc1/C=C/c1nsc(/C=C/c2ccccc2Cl)n1`, the TGI in [2] was 48.5 µM; in [3], more than 100 µM; in [4] it was 55.6 µM; in assay [18], more than 100 µM; in [5] it was 84.5 µM; in assay [6], more than 100 µM. Besides, the TGI in [8], in assay [9], in [10], in assay [11], in assay [12] and in [13] was more than 100 µM each time. Further, the TGI is more than 100 µM in [14], more than 100 µM in [15], more than 100 µM in assay [16] and 52.5 µM in [17].

For the compound `COC(=O)c1ccc2c(c1)CC1(C2)Cc2cc3c(c(C(=O)OC)c2C1)CCCC3` (configuration not stated), the TGI in [1], in assay [2], in assay [4], in assay [18], in assay [5] and in assay [6] was more than 100 µM throughout. The TGI in [7], in assay [8], in assay [9], in assay [10], in [11] and in assay [12] was more than 100 µM each time. The TGI in assay [13], in assay [15], in assay [16] and in assay [17] was more than 100 µM each time.

On to `O=C(CCCN1CCC2(CC1)C(=O)NC(=O)N2c1ccccc1)c1ccc(F)cc1`, for which the TGI in assay [1], in assay [3], in assay [4], in assay [18], in assay [5] and in [6] was more than 100 µM in each case. The TGI in assay [7], in assay [8], in [9], in [10], in assay [11] and in assay [12] was more than 100 µM each time. The TGI in assay [13], in [14], in assay [15], in assay [16] and in assay [17] was more than 100 µM in each case.

With `NS(=O)(=O)c1ccc(NC(=O)c2cc([N+](=O)[O-])cc([N+](=O)[O-])c2)cc1`, the TGI in assay [1] was 54.2 µM; in assay [2], more than 100 µM; in assay [3] it was more than 100 µM; in assay [4], more than 100 µM; in assay [18] it was more than 100 µM; in assay [5], more than 100 µM. Further, the TGI in [6], in [7], in assay [8], in assay [9], in [10] and in assay [11] was more than 100 µM throughout. Also, the TGI in assay [13] was 35 µM; in assay [14], more than 100 µM; in [15], more than 100 µM; in assay [16], 84.9 µM; in assay [17] it was 97.4 µM.

Turning to `COc1ccc(NC(=O)CC(=O)n2nc(C)c(N=Nc3ccc(C)c(C)c3)c2C)cc1`, the TGI is more than 100 µM in [1]; more than 100 µM in assay [3]; more than 100 µM in assay [4]; 87 µM in [18]; more than 100 µM in assay [5]; more than 100 µM in [6]. In addition, the TGI in [7], in [8], in assay [9], in assay [10], in assay [11] and in [12] was more than 100 µM throughout. Also, the TGI in assay [13], in [14], in [15], in [16] and in assay [17] was more than 100 µM in each case.

As for `CC(CC(=O)CO[C@H]1[C@H](O)[C@@H](O)[C@@H](O)[C@@H]2NC(=O)c3c(cc4c(c3O)OCO4)[C@H]21)OC1OC(CO)C(O)C(O)C1O` (some centres not stated), the TGI in assay [1] amounted to 4.17 µM; in assay [3] it was 2.17 µM; in assay [4], 2.22 µM; in [18], 0.884 µM; in assay [5], 2.07 µM; in [7] it was 3.07 µM. In addition, the TGI turned out to be 1.89 µM in assay [8]; 4.39 µM in assay [9]; 3.54 µM in assay [10]; 2.07 µM in [11]; 1.23 µM in assay [12]; 4.5 µM in [13]. The TGI amounted to 0.859 µM in [14], 1.8 µM in assay [15], 2.65 µM in [16] and 2.45 µM in assay [17].

Take `CC12CC3CC/C(=N\O)C(C1)C3(N1CCOCC1)C/C2=N/O` (configuration not stated): the TGI was more than 100 µM in assay [1]; more than 100 µM in [2]; more than 100 µM in assay [3]; more than 100 µM in assay [4]; 94.8 µM in assay [18]; more than 100 µM in assay [6]. The TGI in assay [7], in assay [8], in [9], in assay [10], in assay [11] and in assay [12] was more than 100 µM throughout. Moreover, the TGI in [13], in assay [14], in assay [15], in assay [16] and in [17] was more than 100 µM throughout.

For `Oc1c(C2=NNC(c3cccs3)C2)ccc2ccccc12` (configuration not stated), the TGI in assay [1] is 30.3 µM; in assay [2], 44 µM; in assay [3] it was 32.5 µM; in assay [4], 29.3 µM; in assay [18] it was more than 100 µM; in [5], 77.9 µM. Further, the TGI in assay [6] was 69.5 µM; in [7], more than 100 µM; in assay [8], 91.2 µM; in [9], 56.5 µM; in [10] it was 30.9 µM; in assay [11], 94.2 µM. In addition, the TGI in assay [12] was 60.6 µM; in assay [13], 40 µM; in assay [14] it was more than 100 µM; in assay [15], more than 100 µM; in [16], 43.5 µM.

On to `CC(=O)Nc1ccc(Nc2cc(=O)n(C)c(=O)[nH]2)cc1`, for which the TGI in assay [1], in assay [2], in assay [3], in assay [4], in [18] and in assay [5] was more than 100 µM in each case. Besides, the TGI in assay [6], in assay [7], in [8], in assay [9], in assay [10] and in assay [11] was more than 100 µM throughout. The TGI in [12], in assay [13], in [14], in assay [15] and in assay [16] was more than 100 µM each time.

Turning to `COc1cc([C@@H]2c3cc4c(cc3[C@H](OC3OC5COC(C(C)C)OC5C(O)C3O)C3COC(=O)[C@@H]32)OCO4)cc(OC)c1O` (some centres not stated), the TGI in assay [1] was 24.7 µM; in assay [2] it was more than 100 µM; in assay [3], 24.3 µM; in assay [4] it was more than 100 µM; in assay [5], 42.5 µM; in assay [6], 10.5 µM. For the same compound, the TGI was 15.4 µM in assay [7]; 28.8 µM in assay [8]; 22.8 µM in assay [9]; more than 100 µM in [10]; 25.9 µM in [11]; 37.1 µM in assay [12]. Further, the TGI in [13] is 19.2 µM; in assay [14] it was 31.5 µM; in [15], 17.2 µM; in [16], 24.4 µM; in assay [17] it was more than 100 µM.

With `CSc1c(C(=O)Nc2ccc(C)cc2)c(N)nn1-c1ccccc1`, the TGI in assay [1], in [2], in assay [3], in assay [4], in assay [5] and in [6] was more than 100 µM each time. The TGI in assay [7] is more than 100 µM; in assay [8] it was more than 100 µM; in assay [9], 75.1 µM; in assay [10], more than 100 µM; in assay [12], more than 100 µM; in assay [13], more than 100 µM. Also, the TGI in assay [14] was more than 100 µM; in [15] it was 75.3 µM; in assay [16], more than 100 µM; in [17] it was more than 100 µM.

For the compound `Cc1nc(-c2ccccc2)c(C)n2c1nc1ccccc12`, the TGI was 41 µM in assay [1]; more than 100 µM in assay [2]; 46 µM in assay [3]; 56.2 µM in assay [4]; 66.3 µM in assay [18]; 40.6 µM in assay [5]. Moreover, the TGI was more than 100 µM in assay [6]; 40.9 µM in [7]; more than 100 µM in assay [8]; more than 100 µM in assay [9]; more than 100 µM in assay [10]; 70.1 µM in assay [11]. The TGI was determined as 59.5 µM in [13]; 45.9 µM in assay [14]; 88.9 µM in assay [15]; 54.8 µM in assay [16]; 44.4 µM in assay [17].

For the compound `COc1cc(N(CCC#N)CCC#N)ccc1/C(N=Nc1ccc(C)cc1)=N/NC(=O)c1cc(Br)ccc1O`, the TGI in assay [1] was 45.1 µM; in assay [2] it was more than 100 µM; in assay [3], more than 100 µM; in assay [4] it was 76.3 µM; in [18], 75 µM; in assay [5], more than 100 µM. In addition, the TGI in assay [6] was more than 100 µM; in [7] it was 39.3 µM; in assay [8], 55.2 µM; in [10] it was 37.3 µM; in [11] it was 88 µM; in assay [12] it was 50.3 µM. Also, the TGI in [13] is more than 100 µM; in assay [14], 96.5 µM; in assay [15], 65.6 µM; in [16], 67.3 µM; in assay [17], 40.9 µM.

Turning to `ClC(Cl)(Cl)C1CCOC1n1nc2ccccc2n1` (configuration not stated), the TGI in assay [1], in [2], in assay [3], in assay [4], in assay [18] and in assay [6] was more than 100 µM in each case. Besides, the TGI in [7], in assay [8], in assay [9], in assay [10], in assay [11] and in [12] was more than 100 µM each time. The TGI in assay [13], in assay [14], in [15], in [16] and in assay [17] was more than 100 µM each time.

As to `O=c1[nH]c2cc(C(F)(F)F)ccc2nc1Cc1ccccc1`, the TGI in [1], in [2], in assay [3], in [4], in [18] and in [5] was more than 100 µM each time. In addition, the TGI is more than 100 µM in assay [6]; 68.8 µM in assay [7]; 83.6 µM in assay [8]; more than 100 µM in [9]; more than 100 µM in [10]; more than 100 µM in [11]. Also, the TGI in assay [13] was more than 100 µM; in [14], more than 100 µM; in [15], 85.8 µM; in assay [17] it was more than 100 µM.
